According to article PMC12406195, “Understanding the Modes of Action of β‑Ketoiminato Iridium(III) Complexes in Cancer Cells” (Inorganic Chemistry, 2025):

Key:
Assay type in all cases: cell-based, human
[1] = test system: ARPE-19 cells; assay: Chemosensitivity (MTT cell viability) assay, noncancerous ARPE-19; conditions: ARPE-19 noncancerous, 96 h, n = 9
Method: The cytotoxicity of the compounds against the cancer cell lines was also compared to the noncancerous retinal epithelial cell line, ARPE-19, to determine the possibility of cancer cell selectivity. […]
All cytotoxicity assays were conducted using human cell lines: breast adenocarcinomas (MDA-MB-231 and MCF-7), pancreatic carcinoma (MIA PaCa-2) and non-cancerous epithelial retinal (ARPE-19) cell lines. All cell lines were routinely maintained as monolayer cultures in appropriate complete media:
MCF-7, MIA PaCa-2 and ARPE-19 in high glucose DMEM and MDA-MB-231 in RPMI-1640, and both media were supplemented with 10% FBS, 1 mM sodium pyruvate, 2 mM L-glutamine, and 1% pen-strep. All cells were initially grown in T-25 or T-75 flasks at 37 °C and 5% CO2. Before chemosensitivity studies, cell monolayers were passaged using trypsin-EDTA (0.05%) and diluted to a concentration of 1 x 10^4 cells/mL (or 4 x 10^4 cells mL for 24 h assays). All assays were conducted in 96-well plates, in which 100 µL of the cell suspension was added for 24 h at 37 °C and 5% CO2, and then 100 µL of compound/medium dilutions for a further 96 h (or 24 h). All compound stocks were made using sterile DMSO at 100 mM before dilution, and a maximum of 0.1% DMSO was used in each assay. After incubation, 3-(4,5-dimethylthiazol-2-yl)-2,5-diphenyltetrazolium bromide (20 µL, 5 mg/mL in PBS) was added to each well and incubated for 3 h at 37°C and 5% CO2. All solutions were then aspirated, DMSO (150 µL) added to each well, gently mixed, and the absorbance was measured at 540 nm using a ClarioStar spectrophotometer microplate reader. Results were plotted on a logarithmic scale, and the half maximal inhibitory concentration (IC50) was determined from a triplicate of triplicate repeats (n = 9) and reported as an IC 50 ± Standard Deviation (SD).

[2] = test system: MDA-MB-231 cells; assay: Nuclei morphology assay (DAPI); conditions: MDA-MB-231, 48 h
Source text: The potential of compound 1 to trigger apoptosis in breast cancer cells was then studied. […] High-magnification insets (1–6) illustrate representative nuclear morphologies captured in the assay. Condensed, hyperintense nuclei with reduced area (e.g., images 1, 2 and 3), irregular nuclear blebs with discontinuous chromatin (e.g., images 3 and 4), and fragmented chromatin consistent with apoptotic bodies (e.g., images 5 and 6).
7 Microscopic visualization of nuclear morphology changes in MDA-MB-231 breast cancer cells after 48 h exposure to compound 1 or CDDP. […] Images were acquired using a Leica DMI8 fluorescence microscope at 40× magnification. […]
(§1) MDA-MB-231 cells at 4000 cells/well were seeded into a black clear -bottom 96-well plate using phenol-red free complete RMPI medium, and incubated for 48 h. […] Fluorescence images were obtained using a Zeiss Observer 7 inverted microscope at excitation at 488 nm and emission at 509 […]
(§2) Plasmid DNA (200 ng, pBOS -H2B-GFP, BD Biosciences) was incubated overnight at room temperature with 1 or CDDP at concentrations between 100 and 400 μM in double -distilled H2O (20 μL total volume). […] The experiment was conducted in two biological replicates, and the band intensities were quantified and analyzed using ImageJ software. […]

[3] = test system: MDA-MB-231 cells; assay: Acridine orange/ethidium bromide (AO/EB) staining; conditions: MDA-MB-231, 48 h
Method: To investigate how the drugs impacted cell viability, acridine orange (AO)/ethidium bromide (EtBr) staining was employed to identify the MDA-MB-231 cells' mode of death in response to compound 1 or CDDP, with AO marking early apoptotic cells in green and EtBr marking late apoptotic or necrotic cells in red. […] This effect was more pronounced than with CDDP, indicating its higher efficacy.
as §1, with “h. The cells were treated with 100 µM of 1 for 4 h alongside an untreated sample (control).” for “h.”
as §2
(§3) MDA-MB-231 cells were seeded in 6-well plates at a density of 1.2 × 10⁵ cells/well. […] The samples were then placed on microscope slides, covered with a coverslip, and their morphology was examined using a fluorescence microscope (Eclipse TS100, Nikon). […]

[4] = test system: MDA-MB-231 cells; assay: Reactive oxygen species (H2DCFDA fluorescence); conditions: MDA-MB-231, 100 μM, 4 h, compared to nontreated control
Method: To measure the degree of ROS produced in MDA-MB-231 cells, 2′,7′-dichlorodihydrofluorescein diacetate (H2DCFDA), a cell-permeable fluorescent dye, was used. H2DCFDA is deacetylated by esterases and consecutively oxidized by intracellular ROS into a fluorescent molecule, dichlorofluorescein (DCF).
MDA-MB-231 cells at 4000 cells/well were seeded into a black clear -bottom 96-well plate using phenol-red free complete RMPI medium, and incubated for 48 h. The cells were treated with 100 µM of 1 for 4 h alongside an untreated sample (control). 2′,7′ -dichlorodihydrofluorescein diacetate (H 2DCFDA, 20 μM final concentration in PBS ) was added for 45 min. […] Fluorescence images were obtained using a Zeiss Observer 7 inverted microscope at excitation at 488 nm and emission at 509 […]
as §2, §3

**Q.** “[Cp*Ir(C16H14NO)(PTA)](PF6) [Compound 1]” was tested. Which IC50 [1] did it give?
**A.** 10.4 ± 0.7 µM

**Q.** What about the Nuclear morphology [2] of the same substance?
**A.** typical apoptotic features like DNA fragmentation and condensation

**Q.** What about the “AO/EtBr staining (mode of cell death)” value [3] of the same substance?
**A.** increased staining for both dyes

**Q.** And the “ROS generation (DCF fluorescence)” value [4]?
**A.** increase in fluorescence
